Values of other authors, collected in US20140220138A1, “ENHANCED NITRIC OXIDE DELIVERY AND USES THEREOF” (Albert Einstein College of Medicine of Yeshiva University, priority 2011, published 2014).
In brackets after ≈: the same amount, converted by molar mass.

Structure (SMILES) | MIC90 (E. coli (ATCC 25922)) [mM] | reduction in Bacillus viability (Bacillus subtilis; 20-25 μM NO repetitively added over time) [fold] | viability after exposure to NO (Bacillus subtilis; exposure to either 50 or 200 μM NO)
N[C@@H](CCC(=O)N[C@@H](CSN=O)C(=O)NCC(=O)O)C(=O)O [GSNO, S-nitrosoglutathione] | 5 (≈ 1680 µg/mL) |  | 
[N]=O [NO, nitric oxide] |  | 100 | no significant loss in viability
